# Several values for one entry are separate records, joined by “and”; a condition that tells them apart may be missing. Equal values may be shown once.
# Columns and labels:
# [1] = system: LNCaP target cells and reporter cells with CD16a-158V/V variant; experiment: ADCC reporter assay; type: cell-based, human
# Description: In one example, LNCaP cells (human prostate cancer derived, ATCC: CRL-1740) were detached and re-suspended in 1% BSA in RPMI. Cell solution was filtered to remove cell aggregate (polystyrene tube with cell strainer, Corning: 352235) before being counted (Life Technologies Countless II cell counter) and plated (10,000 cells in 25 μL/well; Corning plates: 3917). The plated was centrifuged (5 min, 300×g) and the compound solutions (25 μL/well) were added immediately after. The antibody solutions (25 μL/well, IgG1 FC-Thermo Fisher: 10702HNAH5; Dintrophenyl-KLH polyclonal antibody-Thermo Fisher: A-6430) were added following a 45 min incubation at 37° C. The plate was then incubated with the antibody solution for 45 min to allow for cell-ARM-antibody ternary complex formation before the addition of the effector cells (60 K in 25 μL/well, ADCC reporter cells—Promega kit: G7018). The plate was centrifuged (5 min, 300×g) and effector cells were incubated for an 5 h at 37° C. Following the induction period the plate was equilibrated to 25° C. followed the addition of the luciferase substrate (75 μL/well, 1 vial in 10 mL of Bio-Glo assay buffer, Promega kit: G7018). The plate was then centrifuged (5 min, 300×g) and the luminescence was measured (Biotek Synergy H1 microplate reader).
# An example set of data are present below:
# LNCaP target cells and reporter cells with CD16a-158V/V variant
# LNCap cells = experiment: Ternary complex formation of ARM, antibody and target cells (flow cytometry); type: cell-based, human; conditions: 20 ug/ml rabbit anti-DNP Alexa 488, 4 C 30 min, mean fluorescence
# Description: Various technologies are suitable for assessing complex formation. One example such assay was described below. Those skilled in the art appreciate that one or more parameters and/or conditions may be adjusted and other assays/reagents/conditions, etc., can also be utilized.
# Adherent cells (LNCap, CRL-1740, for example results below) were harvested using Accumax (Sigma-Aldrich A7089-100 ml). Compounds were diluted in DMSO (MP 191418) to 1000× the starting concentration used in the assay into a 96 well polypropylene plate (Corning 3357). They were then serially diluted in ½ log increments to generate 8-12 concentrations in DMSO (assay dependent). These DMSO stocks were then step diluted 1/10 into PBS (VWR Cat. #20012043). The step diluted compound range was then added into the polypropylene assay plate 1/100 the volume of the assay volume. The cells used for the assay were counted and centrifuged and resuspended at a concentration of 100,000 cells per 200 ul in Flow buffer: 1% BSA (American Bio AB01088-00100); 0.5 mM EDTA (VWR 45001-122); PBS (VWR Cat. #20012043) with 20 ug/ml rabbit anti-DNP Alexa 488 (Thermo Fisher Scientific A11097). The cells were then added into the polypropylene plate with the step diluted compounds and incubated at 4 C 30 min. At the end of the incubation, the cells were centrifuged and washed 2× with Flow buffer containing 0.5% Tween 20 (BP337-500). Samples were analyzed on a BD FacsCelesta. Mean fluorescence was analyzed using Graphpad Prism and curves were fit using log (inhibitor) vs. response-Variable slope (four parameters).
# non-CIML NK cells = experiment: NK cell fratricide assay, non-CIML control NK cells; type: cell-based; conditions: daratumumab treatment, 2 hr
# Description: (§1) PBMC isolation: Leukopheresis product from a donor with body mass index (BMI) between 19-25, under 50 years old, not on immuno-suppressive drugs for at least 2 weeks with an estimated PBMC cell count of >10^10 was obtained from Key Biologics (subject ID 20982200) and transported at ambient temperature. Leukopheresis bag was wiped down with 70% EtOH, a small slit was made and contents were pipetted off into tubes. Leukopak contents were diluted 1:1 with PBS without Ca++/Mg++ and 20 ml of this mixture was layered on top of 25 mL of Ficoll. Tubes were then centrifuged at 400 g for 30 minutes without brakes. PBMCs were harvested from the interface into separate tubes, and tubes were filled to 50 mL with PBS. Cells were centrifuged for 10 min at 120 g to get rid of platelets. Supernatant was poured off and cells were re-suspended in RPMI 10% FBS at a concentration of 7-10×10^6 cells/ml. Cells were cultured overnight at 37C in a 5% CO2 atmosphere until NK cell isolation.
# NK cell isolation: PBMC were centrifuged at 400 g for 10 min and re-suspended in EasySep buffer. NK cells were isolated using NK cell isolation kits from STEMCELL Technologies according to kit's manufacturers' instructions. NK cell purity and phenotype was assessed by trypan Blue and flow cytometry using the following antibody cocktail: anti-CD56PE, CD3 APC, and viability was determined using staining with Trypan Blue exclusion dye, and by flow cytometry using Near Infra-Red Fixable viability dye (Thermo Fisher). […]
# Purity and viability of NK cells and CIML NK cells: Among other things, the present disclosure provides highly pure and viable NK cell populations following isolation from PBMC. […] After an overnight incubation, purity and viability were assessed in the cultured cell populations. […]
# (§2) NK cell fratricide (death directed at NK cells in the same culture) was assessed by flow cytometry following a 2 hr incubation with the CD38 ARM at indicated concentrations in the presence or absence of 500 μg/ml intravenous immune globulin (IVIG). […]
# CIML NK cells = experiment: CIML NK cell fratricide assay; type: cell-based; conditions: CIML NK cells; 3 μg/ml or 20.1 nM; 2 hours post-incubation
# Description: as §1
# NK cell isolation: PBMC were centrifuged at 400 g for 10 min and re-suspended in EasySep buffer. NK cells were isolated using NK cell isolation kits from STEMCELL Technologies according to kit's manufacturers' instructions. NK cell purity and phenotype was assessed by trypan Blue and flow cytometry using the following antibody cocktail: anti-CD56PE, CD3 APC, and viability was determined using staining with Trypan Blue exclusion dye, and by flow cytometry using Near Infra-Red Fixable viability dye (Thermo Fisher).
# CIML NK cell generation: Isolated NK cells were re-suspended at 2×10^6 cells/ml in XVIVO 10% Human Serum and the following concentrations IL-15 (50 ng/ml), IL-12 (10 ng/ml), IL-18(50 ng/ml) for 12 to 18 hrs. […]
# as §2
compound,measurement,setting,value
CC(C)C[C@@H]1NC(=O)[C@H](Cc2c[nH]cn2)NC(=O)[C@H](Cc2c[nH]c3ccccc23)NC(=O)[C@H](C)NC(=O)[C@@H](NC(=O)[C@H](CC(=O)O)NC(=O)CCOCCOCCOCCOCCOCCOCCOCCOCc2cn(CCCC[C@H](NC(=O)N[C@@H](CCC(=O)O)C(=O)O)C(=O)O)nn2)CSSC[C@@H](C(=O)N[C@H](C(=O)O)[C@@H](C)O)NC(=O)[C@H](Cc2c[nH]c3ccccc23)NC(=O)[C@H](C(C)C)NC(=O)[C@H](CC(C)C)NC(=O)[C@H](CCC(=O)O)NC(=O)CNC1=O [Compound I-11],Luminescence (background substracted),"[1]; I-11 3.2 nM, IgG1 FC (20 nM)",165.5 and 123.5
same,Luminescence (background substracted),"[1]; I-11 3.2 nM, IgG1 FC (200 nM)",172 and 189
same,Luminescence (background substracted),"[1]; I-11 3.2 nM, anti-DNP (20 ug/mL)",128.5 and 86.5
same,Luminescence (background substracted),"[1]; I-11 16 nM, IgG1 FC (20 nM)",667.5 and 621.5
same,Luminescence (background substracted),"[1]; I-11 16 nM, IgG1 FC (200 nM)",1216 and 1040
same,Luminescence (background substracted),"[1]; I-11 16 nM, anti-DNP (20 ug/mL)",934.5 and 855.5
same,Luminescence (background substracted),"[1]; I-11 80 nM, IgG1 FC (20 nM)",1251.5 and 1037.5
same,Luminescence (background substracted),"[1]; I-11 80 nM, IgG1 FC (200 nM)",1708 and 1823
same,Luminescence (background substracted),"[1]; I-11 80 nM, anti-DNP (20 ug/mL)",1635.5 and 1605.5
same,Luminescence (background substracted),"[1]; I-11 400 nM, IgG1 FC (20 nM)",797.5 and 679.5
same,Luminescence (background substracted),"[1]; I-11 400 nM, IgG1 FC (200 nM)",1827 and 1494
same,Luminescence (background substracted),"[1]; I-11 400 nM, anti-DNP (20 ug/mL)",1842.5 and 1696.5
same,Luminescence (background substracted),"[1]; I-11 2000 nM, IgG1 FC (20 nM)",151.5 and 163.5
same,Luminescence (background substracted),"[1]; I-11 2000 nM, IgG1 FC (200 nM)",1372 and 1118
same,Luminescence (background substracted),"[1]; I-11 2000 nM, anti-DNP (20 ug/mL)",1374.5 and 1253.5
same,EC50,LNCap cells,6.6 nM
CC(C)C[C@@H]1NC(=O)[C@H](Cc2c[nH]cn2)NC(=O)[C@H](Cc2c[nH]c3ccccc23)NC(=O)[C@H](C)NC(=O)[C@@H](NC(=O)[C@@H](N)CC(=O)O)CSSC[C@@H](C(=O)N[C@H](C(=O)NCCOCCOCCOCCOCCOCCOCCOCCOCc2cn(CCCC[C@H](NC(=O)N[C@@H](CCC(=O)O)C(=O)O)C(=O)O)nn2)[C@@H](C)O)NC(=O)[C@H](Cc2c[nH]c3ccccc23)NC(=O)[C@H](C(C)C)NC(=O)[C@H](CC(C)C)NC(=O)[C@H](CCC(=O)O)NC(=O)CNC1=O [Compound I-16],EC50,LNCap cells,7.4 nM
CC(C)C[C@@H]1NC(=O)[C@H](Cc2c[nH]cn2)NC(=O)[C@H](Cc2c[nH]c3ccccc23)NC(=O)[C@H](C)NC(=O)[C@@H](NC(=O)[C@H](CC(=O)O)NC(=O)CCOCCOCCOCCOCCOCCOCc2cn(CCCC[C@H](NC(=O)N[C@@H](CCC(=O)O)C(=O)O)C(=O)O)nn2)CSSC[C@@H](C(=O)N[C@H](C(=O)O)[C@@H](C)O)NC(=O)[C@H](Cc2c[nH]c3ccccc23)NC(=O)[C@H](C(C)C)NC(=O)[C@H](CC(C)C)NC(=O)[C@H](CCC(=O)O)NC(=O)CNC1=O [Compound I-33],EC50,LNCap cells,3 nM
CC(C)C[C@@H]1NC(=O)[C@H](Cc2c[nH]cn2)NC(=O)[C@H](Cc2c[nH]c3ccccc23)NC(=O)[C@H](C)NC(=O)[C@@H](NC(=O)[C@H](CC(=O)O)NC(=O)CCOCCOCCOCCOCCOCCOCCOCCOCc2cn(CCCC[C@H](NC(=O)N[C@@H](CCC(=O)O)C(=O)O)C(=O)O)nn2)CSSC[C@@H](C(=O)N[C@H](C(=O)O)[C@@H](C)O)NC(=O)[C@H](Cc2c[nH]c3ccccc23)NC(=O)[C@H](C(C)C)NC(=O)[C@H](CC(C)C)NC(=O)[C@H](CCC(=O)O)NC(=O)CNC1=O [Compound I-34],EC50,LNCap cells,8.7 nM
daratumumab [reference compound],total increase in dead NK cells over DMSO treated control,non-CIML NK cells,5.6%
same,increase in the percentage of dead NK cells,CIML NK cells,4%

# — patent US12491246B2, “Combination therapy of arms and natural killer cells” (KLEO PHARMACEUTICALS, INC., priority 2018, dated 2025)
